The results in this text go back to patent publication US20240390335A1, “PHARMACEUTICAL COMPOSITION CONTAINING BETA-LACTAM COMPOUND AND USE THEREOF” (priority 2021, published 2024).

One assay relates to Acinetobacter baumannii. Kind of assay: Combined in vitro use, checkerboard dilution method. It counts as cell-based. In outline: (§1)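 Checkerboard two-fold dilutions of drug (2,048 μg/mL stock) plus lactamase or efflux pump inhibitor in MH broth, inoculated with bacteria at 6×10^5 CFU/mL (suspension concentration), 37° C for 18 hours. Growth scored visually. FICI computed from MICs in combination versus alone; triplicates, three separate days, averaged.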

Another assay deals with Enterobacter cloacae. The assay is described as above. The following applies: compound of formula (I-1) combined with avibactam; Enterobacter cloacae ATCC 2468. It counts as cell-based. In outline:
as §1

For the compound `CC1(C)[C@H](NC(=O)/C(=N\OC2(C(=O)O)CC2)c2csc(N)n2)C(=O)N1OS(=O)(=O)O` [Compound of formula (I-1)], the “reduction of MIC values on combination” value was “four-fold” in the assay on Acinetobacter baumannii (combined with berberine, Acinetobacter baumannii ATCC19606 and ATCC17978); “four-fold” in the assay on Acinetobacter baumannii (combined with conessine, Acinetobacter baumannii ATCC19606). For the same compound, the MIC in combination in the assay on Acinetobacter baumannii (compound of formula (I-1) combined with PAβN, Acinetobacter baumannii ATCC 17978) came to 16 µg/mL; with Acinetobacter baumannii (compound of formula (I-1) combined with PAβN, Acinetobacter baumannii ATCC 19606), 16 µg/mL; in the assay with Acinetobacter baumannii (compound of formula (I-1) combined with PAβN, Acinetobacter baumannii CCPM(A)-P-101633(CRAB)), 16 µg/mL; with Acinetobacter baumannii (compound of formula (I-1) combined with berberine, Acinetobacter baumannii ATCC 17978), 4 µg/mL; with Acinetobacter baumannii (compound of formula (I-1) combined with berberine, Acinetobacter baumannii ATCC 19606), 4 µg/mL; in the assay on Acinetobacter baumannii (compound of formula (I-1) combined with berberine, Acinetobacter baumannii CCPM(A)-P-101633(CRAB)), 16 µg/mL. For the same compound, the MIC in combination in the assay on Acinetobacter baumannii (compound of formula (I-1) combined with conessine, Acinetobacter baumannii ATCC 19606) worked out at 4 µg/mL; in the assay on Enterobacter cloacae, 1 µg/mL.
